Data: ChEMBL document CHEMBL1201862, “PubChem BioAssay data set” (2004)
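These data come from cells grown in 96-well plates and exposed to compound for 48 hours at five concentrations. At the GI50, growth is halved.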 Activity calls are given as the source filed them. Cut-off read from the data, not from the text of the source: active = GI50 up to about 1.1 µM and inactive = higher.

What was measured:
Test in all cases: NCI-60 cell line screen, 48 h
[1] = test system: SK-MEL-28
[2] = test system: NCI/ADR-RES
[3] = test system: ACHN
[4] = test system: UACC-257
[5] = test system: KM12
[6] = test system: DU-145
[7] = test system: Malme-3M
[8] = test system: MOLT-4
[9] = test system: NCI-H226
[10] = test system: SW-620
[11] = test system: SK-MEL-5
[12] = test system: SNB-19
[13] = test system: MDA-MB-231
[14] = test system: SF-539
[15] = test system: SF-268
[16] = test system: EKVX
[17] = test system: K562
[18] = test system: TK-10
[19] = test system: HOP-62
[20] = test system: SF-295
[21] = test system: MCF7
[22] = test system: SNB-75
[23] = test system: U-251
[24] = test system: OVCAR-5
[25] = test system: UO-31
[26] = test system: HCT-116
[27] = test system: HCT-15
[28] = test system: OVCAR-3
[29] = test system: OVCAR-8
[30] = test system: HOP-92
[31] = test system: A498
[32] = test system: RXF 393
[33] = test system: CAKI-1
[34] = test system: OVCAR-4
[35] = test system: Hs-578T
[36] = test system: HT-29
[37] = test system: CCRF-CEM
[38] = test system: PC-3
[39] = test system: IGROV-1
[40] = test system: LOX IMVI
[41] = test system: SK-OV-3
[42] = test system: MDA-N
[43] = test system: NCI-H460
[44] = test system: A549
[45] = test system: COLO 205
[46] = test system: HL-60
[47] = test system: T47D
[48] = test system: RPMI-8226
[49] = test system: NCI-H522
[50] = test system: SK-MEL-2
[51] = test system: NCI-H23
[52] = test system: HCC 2998
[53] = test system: 786-0
[54] = test system: M14
[55] = test system: SR
[56] = test system: MDA-MB-435
[57] = test system: SN12C
[58] = test system: UACC-62

## O=C(O)CC1C(=O)OC2C3COC(=O)c4cc(O)c(O)c(O)c4-c4c(cc(O)c(O)c4O)C(=O)OC2C(OC(=O)c2cc(O)c(O)c4c2C1C(O)C(=O)O4)C(OC(=O)c1cc(O)c(O)c(O)c1)O3 (stereo not given)
[1]
  GI50: 95.5 µM (inactive)
[2]
  GI50: 16.7 µM (inactive)
[3]
  GI50: 30.4 µM (inactive)
[4]
  GI50: 34.1 µM (inactive)
[5]
  GI50: 17 µM (inactive)
[6]
  GI50: 36.4 µM (inactive)
[7]
  GI50: > 100 µM (inactive)
[8]
  GI50: 27.3 µM (inactive)
[9]
  GI50: 30.4 µM (inactive)
[10]
  GI50: 28.8 µM (inactive)
[11]
  GI50: > 100 µM (inactive)
[12]
  GI50: > 100 µM (inactive)
[13]
  GI50: 26.2 µM (inactive)
[14]
  GI50: 52.5 µM (inactive)
[15]
  GI50: 36.6 µM (inactive)
[16]
  GI50: 18 µM (inactive)
[17]
  GI50: 36.4 µM (inactive)
[18]
  GI50: > 100 µM (inactive)
[19]
  GI50: > 100 µM (inactive)
[20]
  GI50: 27.8 µM (inactive)
[21]
  GI50: 16.9 µM (inactive)
[22]
  GI50: 3.35 µM (inactive)
[23]
  GI50: 23.9 µM (inactive)
[24]
  GI50: 13.5 µM (inactive)
[25]
  GI50: 27.2 µM (inactive)
[26]
  GI50: 14.6 µM (inactive)
[27]
  GI50: 17.5 µM
[28]
  GI50: 18 µM (inactive)
[29]
  GI50: 20.5 µM (inactive)
[30]
  GI50: 16.7 µM (inactive)
[31]
  GI50: > 100 µM (inactive)
[32]
  GI50: 4.39 µM (inactive)
[33]
  GI50: 17.3 µM (inactive)
[34]
  GI50: 37.9 µM (inactive)
[35]
  GI50: 56.5 µM (inactive)
[36]
  GI50: 13.6 µM (inactive)
[37]
  GI50: 13.7 µM (inactive)
[38]
  GI50: 33.8 µM (inactive)
[39]
  GI50: 30.2 µM (inactive)
[40]
  GI50: 14 µM (inactive)
[41]
  GI50: 18.5 µM (inactive)
[42]
  GI50: 24.1 µM (inactive)
[43]
  GI50: 16 µM (inactive)
[44]
  GI50: 21.6 µM (inactive)
[45]
  GI50: 35.1 µM (inactive)
[46]
  GI50: 7.43 µM (inactive)
[47]
  GI50: 59.8 µM (inactive)
[48]
  GI50: 36.9 µM (inactive)
[49]
  GI50: 15.9 µM (inactive)
[50]
  GI50: > 100 µM (inactive)
[51]
  GI50: 49.3 µM (inactive)
[52]
  GI50: > 100 µM (inactive)
[53]
  GI50: 18.5 µM (inactive)
[54]
  GI50: 27.7 µM (inactive)
[55]
  GI50: 33.7 µM (inactive)
[56]
  GI50: 26.4 µM (inactive)
[57]
  GI50: 17.5 µM (inactive)

## Cc1csc(NNC(=O)Nc2ccccc2)n1
[1]
  GI50: > 100 µM (inactive)
[2]
  GI50: > 100 µM (inactive)
[3]
  GI50: > 100 µM (inactive)
[4]
  GI50: > 100 µM (inactive)
[5]
  GI50: > 100 µM (inactive)
[6]
  GI50: > 100 µM (inactive)
[7]
  GI50: > 100 µM (inactive)
[9]
  GI50: > 100 µM (inactive)
[10]
  GI50: > 100 µM (inactive)
[11]
  GI50: > 100 µM (inactive)
[12]
  GI50: > 100 µM (inactive)
[13]
  GI50: > 100 µM (inactive)
[14]
  GI50: > 100 µM (inactive)
[15]
  GI50: > 100 µM (inactive)
[16]
  GI50: > 100 µM (inactive)
[17]
  GI50: > 100 µM (inactive)
[19]
  GI50: > 100 µM (inactive)
[20]
  GI50: > 100 µM (inactive)
[21]
  GI50: > 100 µM (inactive)
[22]
  GI50: > 100 µM (inactive)
[23]
  GI50: > 100 µM (inactive)
[24]
  GI50: > 100 µM (inactive)
[25]
  GI50: 45.7 µM (inactive)
[26]
  GI50: > 100 µM (inactive)
[27]
  GI50: > 100 µM
[29]
  GI50: > 100 µM (inactive)
[31]
  GI50: > 100 µM (inactive)
[32]
  GI50: > 100 µM (inactive)
[33]
  GI50: > 100 µM (inactive)
[34]
  GI50: > 100 µM (inactive)
[35]
  GI50: > 100 µM (inactive)
[36]
  GI50: > 100 µM (inactive)
[37]
  GI50: > 100 µM (inactive)
[38]
  GI50: > 100 µM (inactive)
[39]
  GI50: > 100 µM (inactive)
[40]
  GI50: > 100 µM (inactive)
[41]
  GI50: > 100 µM (inactive)
[42]
  GI50: > 100 µM (inactive)
[43]
  GI50: > 100 µM (inactive)
[44]
  GI50: > 100 µM (inactive)
[45]
  GI50: > 100 µM (inactive)
[46]
  GI50: > 100 µM (inactive)
[47]
  GI50: > 100 µM (inactive)
[48]
  GI50: > 100 µM (inactive)
[49]
  GI50: > 100 µM (inactive)
[50]
  GI50: > 100 µM (inactive)
[51]
  GI50: > 100 µM (inactive)
[52]
  GI50: > 100 µM (inactive)
[53]
  GI50: > 100 µM (inactive)
[54]
  GI50: > 100 µM (inactive)
[55]
  GI50: > 100 µM (inactive)
[56]
  GI50: > 100 µM (inactive)
[58]
  GI50: > 100 µM (inactive)
[57]
  GI50: > 100 µM (inactive)

## O=C(CSc1nc2ccccc2c(=O)n1-c1ccccc1)N/N=C1\C(=O)Nc2ccc(F)cc21
[1]
  GI50: 2.08 µM (inactive)
[2]
  GI50: 2.21 µM (inactive)
[3]
  GI50: 1.91 µM (inactive)
[4]
  GI50: 2.47 µM (inactive)
[5]
  GI50: 3.71 µM (inactive)
[6]
  GI50: 1.89 µM (inactive)
[7]
  GI50: 2.01 µM (inactive)
[8]
  GI50: 1.61 µM (inactive)
[9]
  GI50: 2.28 µM (inactive)
[10]
  GI50: 4.24 µM (inactive)
[11]
  GI50: 3.3 µM (inactive)
[12]
  GI50: 4.08 µM (inactive)
[13]
  GI50: 2.01 µM (inactive)
[14]
  GI50: 3.14 µM (inactive)
[15]
  GI50: 2.25 µM (inactive)
[16]
  GI50: 2.43 µM (inactive)
[17]
  GI50: 1.61 µM (inactive)
[18]
  GI50: 1.9 µM (inactive)
[19]
  GI50: 2.09 µM (inactive)
[20]
  GI50: 1.87 µM (inactive)
[21]
  GI50: 2.18 µM (inactive)
[23]
  GI50: 8.93 µM (inactive)
[24]
  GI50: 2.04 µM (inactive)
[25]
  GI50: 2 µM (inactive)
[26]
  GI50: 2.02 µM (inactive)
[27]
  GI50: 2 µM
[28]
  GI50: 1.91 µM (inactive)
[30]
  GI50: 1.84 µM (inactive)
[31]
  GI50: 1.85 µM (inactive)
[32]
  GI50: 1.95 µM (inactive)
[33]
  GI50: 1.73 µM (inactive)
[34]
  GI50: 1.82 µM (inactive)
[35]
  GI50: 4.18 µM (inactive)
[36]
  GI50: 3.06 µM (inactive)
[37]
  GI50: 2.35 µM (inactive)
[38]
  GI50: 1.85 µM (inactive)
[40]
  GI50: 4.31 µM (inactive)
[41]
  GI50: 1.81 µM (inactive)
[42]
  GI50: 3.47 µM (inactive)
[43]
  GI50: 2.19 µM (inactive)
[44]
  GI50: 4 µM (inactive)
[45]
  GI50: 2.64 µM (inactive)
[46]
  GI50: 1.82 µM (inactive)
[47]
  GI50: 1.87 µM (inactive)
[48]
  GI50: 2.3 µM (inactive)
[50]
  GI50: 1.88 µM (inactive)
[51]
  GI50: 3.01 µM (inactive)
[52]
  GI50: 2.21 µM (inactive)
[53]
  GI50: 2.34 µM (inactive)
[54]
  GI50: 1.9 µM (inactive)
[55]
  GI50: 1.53 µM (inactive)
[56]
  GI50: 3.64 µM (inactive)
[58]
  GI50: 2.24 µM (inactive)
[57]
  GI50: 1.97 µM (inactive)
